Experimental data reported in patent US20240390340A1 (INCYTE CORPORATION, priority 2023, published 2024).
Where two headings read alike, the source gives them in different places.

Assays:
KRAS G12D = KRAS G12D (Homo sapiens, UniProt P01116, G12D); assay: GDP-GTP exchange assay (bodipy-GDP/GppNHp, SOS1), KRAS G12D; type: biochemical
KRAS G12V = KRAS G12V (Homo sapiens, UniProt P01116, G12V); assay: GDP-GTP exchange assay (bodipy-GDP/GppNHp, SOS1), KRAS G12V; type: biochemical
[1] = bodipy-loaded KRAS G12D 2.5 nM, 4 h pre-incubation, value for the most potent isomer quoted for certain compounds, read-out: G12D (KRAS G12D exchange assay IC50)
[2] = KRAS G12V mutant, value for the most potent isomer quoted for certain compounds, read-out: G12V (KRAS G12V exchange assay IC50)

KRAS G12V, sequence (P01116 1-188 isoform P01116-2 G12V): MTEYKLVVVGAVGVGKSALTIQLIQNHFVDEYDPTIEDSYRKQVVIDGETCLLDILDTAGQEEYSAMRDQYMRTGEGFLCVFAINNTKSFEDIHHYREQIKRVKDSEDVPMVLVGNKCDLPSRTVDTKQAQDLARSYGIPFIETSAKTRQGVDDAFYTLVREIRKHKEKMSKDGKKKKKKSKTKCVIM
KRAS G12D, sequence (P01116 1-188 isoform P01116-2 G12D): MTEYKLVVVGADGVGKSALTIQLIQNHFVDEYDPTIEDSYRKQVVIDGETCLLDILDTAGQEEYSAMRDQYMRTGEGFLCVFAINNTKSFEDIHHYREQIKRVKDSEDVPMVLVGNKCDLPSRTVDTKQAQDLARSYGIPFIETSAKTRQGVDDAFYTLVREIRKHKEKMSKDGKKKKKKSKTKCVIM

Row | Structure (SMILES) | IC50 (KRAS G12D; [1]) [nM] | IC50 (KRAS G12V; [2]) [nM] | IC50 (KRAS G12D; Table H, column G12D, for compounds isolated as several atropisomers/diastereoisomers the value for the most potent isomer is quoted, read-out: KRAS G12D exchange assay IC50) [nM] | IC50 (KRAS G12V; Table H, column G12V, for compounds isolated as several atropisomers/diastereoisomers the value for the most potent isomer is quoted, read-out: KRAS G12V exchange assay IC50) [nM]
1 | Cc1nc2c(F)c(-c3cccc(Cl)c3Cl)c(CCC#N)cc2c2c1cc([C@H]1C[C@H](OC3CC3C(=O)NC(C)(C)C)CN1C(=O)C1CC1)n2[C@H]1[C@H]2CN[C@@H]1C2 (stereo partly shown) [Example 378] | ≤ 100 | ≤ 100 | – | –
2 | Cc1nc2c(F)c(-c3cccc(Cl)c3Cl)c(CCC#N)cc2c2c1cc([C@H]1C[C@H](OCc3cn(C)nn3)CN1C(=O)C1CC1)n2[C@H]1[C@H]2CN[C@@H]1C2 [Example 100] | ≤ 100 | ≤ 100 | – | –
3 | Cc1nc2c(F)c(-c3cccc(Cl)c3Cl)c(CCC#N)cc2c2c1cc([C@H]1C[C@H](Oc3ncco3)CN1C(=O)C1CC1)n2[C@H]1[C@H]2CN[C@@H]1C2 [Example 188] | 5000 to 10000 | 5000 to 10000 | – | –
4 | COc1cc(O[C@H]2C[C@H](c3cc4c(C)nc5c(F)c(-c6cccc(Cl)c6Cl)c(CCC#N)cc5c4n3[C@H]3[C@H]4CN[C@@H]3C4)N(C(=O)C3CC3)C2)ccc1C#N [Example 287] | ≤ 100 | ≤ 100 | – | –
5 | Cc1nc2c(F)c(-c3cccc(Cl)c3Cl)c(CCC#N)cc2c2c1cc([C@H]1C[C@H](Oc3ccnc(C4CCC4)c3)CN1C(=O)C1CC1)n2[C@H]1[C@H]2CN[C@@H]1C2 [Example 421] | ≤ 100 | ≤ 100 | – | –
6 | Cc1nc2c(F)c(-c3cccc(Cl)c3Cl)c(CCC#N)cc2c2c1cc([C@H]1C[C@H](OCc3cnco3)CN1C(=O)C1CC1)n2[C@H]1[C@H]2CN[C@@H]1C2 [Example 258] | ≤ 100 | ≤ 100 | – | –
7 | Cc1cc(F)ncc1O[C@H]1C[C@H](c2cc3c(C)nc4c(F)c(-c5cccc(Cl)c5Cl)c(CCC#N)cc4c3n2[C@H]2[C@H]3CN[C@@H]2C3)N(C(=O)C2CC2)C1 [Example 283] | ≤ 100 | ≤ 100 | – | –
8 | Cc1nc2c(F)c(-c3cccc(Cl)c3Cl)c(CCC#N)cc2c2c1cc([C@H]1C[C@H](n3cc(C4CCCC4)nn3)CN1C(=O)C1CC1)n2[C@H]1[C@H]2CN[C@@H]1C2 [Example 183] | ≤ 100 | ≤ 100 | – | –
9 | Cc1nc2c(F)c(-c3cccc(Cl)c3Cl)c(CCC#N)cc2c2c1cc([C@H]1C[C@H](n3ccc(C#N)n3)CN1C(=O)C1CC1)n2[C@H]1[C@H]2CN[C@@H]1C2 [Example 317] | ≤ 100 | ≤ 100 | – | –
10 | Cc1nc2c(F)c(-c3cccc(Cl)c3Cl)c(CCC#N)cc2c2c1cc([C@H]1C[C@H](O[C@H](C)c3ccccn3)[C@@H](C)N1C(=O)C1CC1)n2[C@H]1[C@H]2CN[C@@H]1C2 [Example 244] | ≤ 100 | ≤ 100 | – | –
11 | [2H]C([2H])(O[C@H]1C[C@H](c2cc3c(C)nc4c(F)c(-c5cccc(Cl)c5Cl)c(CCC#N)cc4c3n2[C@H]2[C@H]3CN[C@@H]2C3)N(C(=O)C2CC2)C1)c1nscc1C [Example 233] | ≤ 100 | ≤ 100 | – | –
12 | Cc1nc2c(F)c(-c3cccc(Cl)c3Cl)c(CCC#N)cc2c2c1cc([C@H]1C[C@H](n3cc(C4CCOC4)nn3)CN1C(=O)C1CC1)n2[C@H]1C2CNC1C2 (stereo partly shown) [Example 181] | ≤ 100 | ≤ 100 | – | –
13 | COc1cc(O[C@H]2C[C@H](c3cc4c(C)nc5c(F)c(-c6cccc(Cl)c6Cl)c(CCC#N)cc5c4n3[C@H]3[C@H]4CN[C@@H]3C4)N(C(=O)C3CC3)C2)ccn1 [Example 304] | ≤ 100 | ≤ 100 | – | –
14 | Cc1nc2c(F)c(-c3cccc(Cl)c3Cl)c(CCC#N)cc2c2c1cc([C@H]1C[C@H](Oc3ccnc(N4CC(OC(F)F)C4)c3)CN1C(=O)C1CC1)n2[C@H]1[C@H]2CN[C@@H]1C2 [Example 368] | ≤ 100 | ≤ 100 | – | –
15 | COc1ncc(C(F)(F)F)cc1O[C@H]1C[C@H](c2cc3c(C)nc4c(F)c(-c5cccc(Cl)c5Cl)c(CCC#N)cc4c3n2[C@H]2[C@H]3CN[C@@H]2C3)N(C(=O)C2CC2)C1 [Example 451] | ≤ 100 | ≤ 100 | – | –
16 | Cc1nc2c(F)c(-c3cccc(Cl)c3Cl)c(CCC#N)cc2c2c1cc([C@H]1C[C@H](n3cc(C#N)cn3)CN1C(=O)C1CC1)n2[C@H]1[C@H]2CN[C@@H]1C2 [Example 281] | ≤ 100 | ≤ 100 | – | –
17 | Cc1nc2c(F)c(-c3cccc(Cl)c3Cl)c(CCC#N)cc2c2c1cc([C@H]1C[C@H](Oc3cccnc3OC(C)C)CN1C(=O)C1CC1)n2[C@H]1[C@H]2CN[C@@H]1C2 [Example 444] | ≤ 100 | ≤ 100 | – | –
18 | Cc1nn(CC(F)F)cc1O[C@H]1C[C@H](c2cc3c(C)nc4c(F)c(-c5cccc(Cl)c5Cl)c(CCC#N)cc4c3n2[C@H]2[C@H]3CN[C@@H]2C3)N(C(=O)C2CC2)C1 [Example 408] | ≤ 100 | ≤ 100 | – | –
19 | Cc1nc(CO[C@H]2C[C@H](c3cc4c(C)nc5c(F)c(-c6cccc(Cl)c6Cl)c(CCC#N)cc5c4n3[C@H]3[C@H]4CN[C@@H]3C4)N(C(=O)C3CC3)C2)cs1 [Example 107] | ≤ 100 | ≤ 100 | – | –
20 | Cc1nc2c(F)c(-c3cccc(Cl)c3Cl)c(CCC#N)cc2c2c1cc([C@H]1C[C@H](n3ccc(C(F)F)n3)CN1C(=O)C1CC1)n2[C@H]1[C@H]2CN[C@@H]1C2 [Example 318] | ≤ 100 | ≤ 100 | – | –
21 | Cc1nc2c(F)c(-c3cccc(Cl)c3Cl)c(CCC#N)cc2c2c1cc([C@H]1C[C@H](Oc3ccn(C(F)F)n3)CN1C(=O)C1CC1)n2[C@H]1[C@H]2CN[C@@H]1C2 [Example 340] | ≤ 100 | ≤ 100 | – | –
22 | Cc1nc2c(F)c(-c3cccc(Cl)c3Cl)c(CCC#N)cc2c2c1cc([C@H]1C[C@H](Oc3cccnc3)CN1C(=O)C1CC1)n2[C@H]1[C@H]2CN[C@@H]1C2 [Example 114] | ≤ 100 | ≤ 100 | – | –
23 | COc1ncnc2c1ccn2[C@H]1C[C@H](c2cc3c(C)nc4c(F)c(-c5cccc(Cl)c5Cl)c(CCC#N)cc4c3n2[C@H]2[C@H]3CN[C@@H]2C3)N(C(=O)C2CC2)C1 [Example 73, 3-(1-((1R,4R,5S)-2-Azabicyclo[2.1.1]hexan-5-yl)-2-((2R,4S)-1-(cyclopropanecarbonyl)-4-(4-methoxy-7H-pyrrolo[2,3-d]pyrimidin-7-yl)pyrrolidin-2-yl)-7-(2,3-dichlorophenyl)-6-fluoro-4-methyl-1H-pyrrolo[3,2-c]quinolin-8-yl)propanenitrile] | – | – | ≤ 100 | ≤ 100

Other lines, results leading:

Row | IC50 (KRAS G12D; [1]) [nM] | IC50 (KRAS G12V; [2]) [nM] | IC50 (KRAS G12D; Table H, column G12D, for compounds isolated as several atropisomers/diastereoisomers the value for the most potent isomer is quoted, read-out: KRAS G12D exchange assay IC50) [nM] | IC50 (KRAS G12V; Table H, column G12V, for compounds isolated as several atropisomers/diastereoisomers the value for the most potent isomer is quoted, read-out: KRAS G12V exchange assay IC50) [nM] | Structure (SMILES)
24 | ≤ 100 | ≤ 100 | – | – | C[C@@H](O)c1nc2c(F)c(-c3cccc(Cl)c3Cl)c(CCC#N)cc2c2c1cc([C@H]1C[C@H](Oc3cc(F)ccn3)CN1C(=O)C1CC1)n2[C@H]1C2CNC1C2 (stereo partly shown) [Example 425]
25 | ≤ 100 | ≤ 100 | – | – | Cc1ncccc1CO[C@H]1C[C@H](c2cc3c(C)nc4c(F)c(-c5cccc(Cl)c5Cl)c(CCC#N)cc4c3n2[C@H]2[C@H]3CN[C@@H]2C3)N(C(=O)C2CC2)C1 [Example 139]
26 | ≤ 100 | ≤ 100 | – | – | Cc1nc2c(F)c(-c3cccc(Cl)c3Cl)c(CCC#N)cc2c2c1cc([C@H]1C[C@H](O[C@@H](C)c3ccccn3)[C@@H](C)N1C(=O)C1CC1)n2[C@H]1[C@H]2CN[C@@H]1C2 [Example 245]
27 | ≤ 100 | ≤ 100 | – | – | Cc1nc2c(F)c(-c3cccc(Cl)c3Cl)c(CCC#N)cc2c2c1cc([C@H]1C[C@H](OC(=O)c3ccccc3)CN1C(=O)C1CC1)n2[C@H]1[C@H]2CN[C@@H]1C2 [Example 87]
28 | ≤ 100 | ≤ 100 | – | – | CO[C@@H]1CC[C@@H](O[C@H]2C[C@H](c3cc4c(C)nc5c(F)c(-c6cccc(Cl)c6Cl)c(CCC#N)cc5c4n3[C@H]3[C@H]4CN[C@@H]3C4)N(C(=O)C3CC3)C2)C1 [Example 440]
29 | ≤ 100 | ≤ 100 | – | – | CCc1nnn([C@H]2C[C@H](c3cc4c(C)nc5c(F)c(-c6cccc(Cl)c6Cl)c(CCC#N)cc5c4n3[C@H]3[C@H]4CN[C@@H]3C4)N(C(=O)C3CC3)C2)c1-c1ccccc1 [Example 392]
30 | ≤ 100 | ≤ 100 | – | – | COc1ncccc1O[C@H]1C[C@H](c2cc3c(C(C)O)nc4c(F)c(-c5cccc(Cl)c5Cl)c(CCC#N)cc4c3n2[C@H]2[C@H]3CN[C@@H]2C3)N(C(=O)C2CC2)C1 (stereo partly shown) [Example 221]
31 | ≤ 100 | ≤ 100 | – | – | [2H]C([2H])(O[C@H]1C[C@H](c2cc3c(C(C)O)nc4c(F)c(-c5cccc(Cl)c5Cl)c(CCC#N)cc4c3n2[C@H]2[C@H]3CN[C@@H]2C3)N(C(=O)C2CC2)C1)c1nscc1C (stereo partly shown) [Example 237]
32 | ≤ 100 | ≤ 100 | – | – | Cc1nc2c(F)c(-c3cccc(Cl)c3Cl)c(CCC#N)cc2c2c1cc([C@H]1C[C@H](n3cc(C4(C)CCCC4)nn3)CN1C(=O)C1CC1)n2[C@H]1[C@H]2CN[C@@H]1C2 [Example 386]
33 | ≤ 100 | ≤ 100 | – | – | Cc1nc2c(F)c(-c3cccc(Cl)c3Cl)c(CCC#N)cc2c2c1cc([C@H]1C[C@H](OCC3CC(F)(F)C3)CN1C(=O)C1CC1)n2[C@H]1[C@H]2CN[C@@H]1C2 [Example 445]
34 | ≤ 100 | ≤ 100 | – | – | Cc1nnn([C@H]2C[C@H](c3cc4c(C)nc5c(F)c(-c6cccc(Cl)c6Cl)c(CCC#N)cc5c4n3[C@H]3[C@H]4CN[C@@H]3C4)N(C(=O)C3CC3)C2)n1 [Example 398]
35 | ≤ 100 | ≤ 100 | – | – | CCn1cc(CO[C@H]2C[C@H](c3cc4c(C)nc5c(F)c(-c6cccc(Cl)c6Cl)c(CCC#N)cc5c4n3[C@H]3[C@H]4CN[C@@H]3C4)N(C(=O)C3CC3)C2)nn1 [Example 231]
36 | ≤ 100 | ≤ 100 | – | – | Cc1nc2c(F)c(-c3cccc(Cl)c3Cl)c(CCC#N)cc2c2c1cc([C@H]1C[C@H](Oc3ccccc3)CN1C(=O)C1CC1)n2[C@H]1[C@H]2CN[C@@H]1C2 [Example 103]
37 | ≤ 100 | ≤ 100 | – | – | Cc1csc(CO[C@H]2C[C@H](c3cc4c(C)nc5c(F)c(-c6cccc(Cl)c6Cl)c(CCC#N)cc5c4n3[C@H]3[C@H]4CN[C@@H]3C4)N(C(=O)C3CC3)C2)n1 [Example 359]
38 | ≤ 100 | ≤ 100 | – | – | Cc1nc2c(F)c(-c3cccc(Cl)c3Cl)c(CCC#N)cc2c2c1cc([C@H]1C[C@H](n3cc([C@]45C[C@H](CN4)C5)nn3)CN1C(=O)C1CC1)n2[C@H]1[C@H]2CN[C@@H]1C2 [Example 274]
